In ChEMBL document CHEMBL4665689, “Picrorhizones A-H, Polyprenylated Benzoylphloroglucinols from the Stem Bark of Garcinia picrorhiza” (J Nat Prod, 2020):

Assays:
Format in all cases: functional, cell-based
HepG2 = experiment: Cytotoxicity activity against human HepG2 cells assessed as reduction in cell viability after 72 hrs by MTT assay; settings: HepG2, 72 h
HT-29 = experiment: Cytotoxicity activity against human HT-29 cells assessed as reduction in cell viability after 72 hrs by MTT assay; settings: HT-29, 72 h
MCF7 = experiment: Cytotoxicity activity against human MCF7 cells assessed as reduction in cell viability after 72 hrs by MTT assay; settings: MCF7, 72 h
KB = experiment: Cytotoxicity activity against human KB cells assessed as reduction in cell viability after 72 hrs by MTT assay
HeLa S3 = experiment: Cytotoxicity activity against human HeLa S3 cells assessed as reduction in cell viability after 72 hrs by MTT assay; settings: HeLa S3, 72 h

Row | Compound | IC50 (HepG2) [µM] | IC50 (HT-29) [µM] | IC50 (MCF7) [µM] | IC50 (KB) [µM] | IC50 (HeLa S3) [µM]
1 | CC(C)=CC[C@@H]1C[C@]23C[C@@H](CC=C(C)C)C(C)(C)[C@](CC=C(C)C)(C(=O)C(C(=O)c4ccc(O)c(O)c4)=C2OC1(C)C)C3=O | > 10 | > 10 | 7.2 | 5.3 | > 10
2 | C=C(C)[C@H]1C[C@@H](C[C@@]23C[C@@H](/C=C/C(C)C)C(C)(C)[C@@](CC=C(C)C)(C2=O)c2oc4cc(O)c(O)cc4c(=O)c2C3=O)C1(C)C | > 10 | > 10 | > 10 | 5.2 | 6.2
3 | C=C(C)[C@H]1C[C@@H](C[C@]23C[C@@H](/C=C/C(C)C)C(C)(C)[C@](C/C=C(\C)CO)(C(=O)C(C(=O)c4ccc(O)c(O)c4)=C2O)C3=O)C1(C)C |  |  |  | > 10 | 8
4 | C=C(C)[C@H]1C[C@@H](C[C@]23C[C@@H](/C=C/C(C)C)C(C)(C)[C@](CC=C(C)C)(C(=O)C(C(=O)c4ccc(O)c(O)c4)=C2O)C3=O)C1(C)C | > 10 | > 10 | > 10 | 7 | 7.2
5 | CC(=O)[C@H]1C[C@@H](C[C@]23C[C@@H](/C=C/C(C)C)C(C)(C)[C@](CC=C(C)C)(C(=O)C(C(=O)c4ccc(O)c(O)c4)=C2O)C3=O)C1(C)C | > 10 | > 10 | > 10 | 7.4 | > 10
6 | C=C(C)[C@H]1C[C@@H](C[C@]23C[C@@H](/C=C/C(C)C)C(C)(C)[C@@]4(C[C@@H](C(C)(C)O)OC4=C(C(=O)c4ccc(O)c(O)c4)C2=O)C3=O)C1(C)C | 9.4 | > 10 | 9.3 | 5.9 | 6
7 | C=C(C)[C@H]1C[C@@H](C[C@]23C[C@@H](/C=C/C(C)C)C(C)(C)[C@](CC=C(C)C)(C(=O)C(C(=O)c4ccccc4)=C2O)C3=O)C1(C)C | > 10 | > 10 | > 10 | 9.9 | > 10
8 | COc1cccc2c1C(=O)c1c(O)c3c(c(O)c1C2=O)C[C@@](O)(C(=O)CO)C[C@@H]3O[C@H]1C[C@H](N)[C@H](O)[C@H](C)O1 [DOXORUBICIN] | 1 | 0.59 |  | 0.02 | 0.15
